# Values quoted from earlier work as cited in US11241426B2, “Aqueous composition for ophthalmic or nasal administration” (NITTO MEDIC CO., LTD., priority 2017, dated 2022).
# Biological target: human H1 receptor (Homo sapiens, UniProt P35367)
# Sequence (P35367 whole entry): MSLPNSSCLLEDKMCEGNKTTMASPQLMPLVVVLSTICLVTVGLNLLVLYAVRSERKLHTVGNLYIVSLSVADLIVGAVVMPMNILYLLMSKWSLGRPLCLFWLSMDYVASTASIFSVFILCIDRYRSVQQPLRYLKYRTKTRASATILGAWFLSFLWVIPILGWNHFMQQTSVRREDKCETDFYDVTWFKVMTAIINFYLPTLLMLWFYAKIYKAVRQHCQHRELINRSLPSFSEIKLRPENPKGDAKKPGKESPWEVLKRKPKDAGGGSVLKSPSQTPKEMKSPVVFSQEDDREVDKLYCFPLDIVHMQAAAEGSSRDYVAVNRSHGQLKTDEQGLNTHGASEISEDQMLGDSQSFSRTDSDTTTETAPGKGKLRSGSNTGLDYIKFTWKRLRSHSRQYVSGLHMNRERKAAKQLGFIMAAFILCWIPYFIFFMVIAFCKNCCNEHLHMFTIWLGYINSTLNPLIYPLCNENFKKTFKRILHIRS
structure (smiles),measurement,setting,value
O=C(O)COCCN1CCN([C@H](c2ccccc2)c2ccc(Cl)cc2)CC1 [Levocetirizine],"affinity for the human H1 receptor, fold higher than that of cetirizine",relative to cetirizine,about 2 fold
same,"affinity for the human H1 receptor, fold higher than that of the S-enantiomer, dextrocetirizine",relative to dextrocetirizine,about 30 fold
